Results published in patent US20250282774A1, “FUSED RING COMPOUND” (SHANGHAI SHIJIANG BIOTECHNOLOGY CO., LTD., priority 2022, published 2025).
pIC50: −log10 of the molar value.

How the values were obtained:
[1] = test system: mPTP-inactive Daoy cell; assay: Cell viability (Promega CellTiter-Glo), mPTP-inactive Daoy cell; type: cell-based; settings: Homo sapiens, Daoy cell transfected with PPIF shRNA vector
[2] = test system: sh-DNMT1 NCI-H82 cell; assay: Cell viability (Promega CellTiter-Glo), sh-DNMT1 NCI-H82 cell; type: cell-based; settings: Homo sapiens, NCI-H82 cell with DNMT1 knocked down
Source text: (§1) The expression of NNMT protein in NCI-H82 cell was overexpressed by inserting the NNMT gene into NCI-H82 cell using a viral vector, and the NNMT protein-overexpressing NCI-H82 cell (ov-NNMT NCI-H82 cell) was obtained. The expression of DNMT1 in NCI-H82 cell was knocked down by transfecting shRNA (the nucleotide sequence of shRNA was […] (SEQ ID No: 3)) using a viral vector, and the NCI-H82 cell with low expression of DNMT1 protein (sh-DNMT1 NCI-H82 cell) was obtained. The control NCI-H82 cell (Con-NCI-H82 cell) was obtained by transfecting NCI-H82 cell with empty virus vector without carrying NNMT gene and shRNA. The expressing content of NNMT protein and DNMT1 protein in the Con-NCI-H82 cell, the expressing content of NNMT protein in the ov-NNMT NCI-H82 cell, and the expressing content of DNMT1 protein in the sh-DNMT1 NCI-H82 cell were detected using Western Blot assay (as shown in FIG. 3 and FIG. 4), it could be seen from FIG. 3 and FIG. 4 that the NNMT protein was overexpressed in the ov-NNMT NCI-H82 cell and the expression of DNMT1 protein was knocked down (i.e, low expression) in the sh-DNMT1 NCI-H82 cell compared with the expression level of NNMT protein and DNMT1 protein in the Con-NCI-H82 cell.

[3] = test system: mPTP-active Daoy cell; assay: Cell viability (Promega CellTiter-Glo), mPTP-active Daoy cell; type: cell-based; settings: Homo sapiens, Daoy cell transfected with empty virus vector
[4] = test system: Con-NCI-H82 cell; assay: Cell viability (Promega CellTiter-Glo), Con-NCI-H82 cell; type: cell-based; settings: Homo sapiens, NCI-H82 cell transfected with empty virus vector
Source text: as §1

[5] = test system: ov-NNMT NCI-H82 cell; assay: Cell viability (Promega CellTiter-Glo), ov-NNMT NCI-H82 cell; type: cell-based; settings: Homo sapiens, NCI-H82 cell overexpressing NNMT protein
Source text: as §1

[6] = test system: Daoy cell transfected with empty virus vector without carrying shRNA; assay: Mitochondria membrane potential difference by TMRM in Daoy cell transfected with empty virus vector (Con shRNA); type: cell-based, human; settings: H2O2 +, CsA −
[7] = test system: Daoy cell; assay: Mitochondria membrane potential difference by TMRM in Daoy cell (mPTP activity); type: cell-based, human; settings: H2O2 +, CsA −
Source text: For cells with active mitochondria permeability transition pore, adding peroxide (such as H2O2) could increase the activity of mitochondria permeability transition pore, resulting in a decrease in mitochondria membrane potential.

[8] = test system: Daoy cell transfected with virus vector carrying shRNA that could specifically induce the degradation of PPIF mRNA; assay: Mitochondria membrane potential difference by TMRM in Daoy cell transfected with PPIF shRNA; type: cell-based, human; settings: H2O2 +, CsA −

Structure (SMILES) | pIC50 [1] | IC50 [2] | pIC50 [3] | IC50 [4] | IC50 [5] | Relative TMRM signal intensity (%), mean value [6] | Relative TMRM signal intensity (%) in Daoy cell after different treatments, mean value [7] | Relative TMRM signal intensity (%), mean value [8]
COc1ccc2cc3[n+](cc2c1N1CCCCC1C)CCc1cc2c(cc1-3)OCO2 (stereo not drawn) [Compound AB35528] | 6.38 | 1.48 µM | 5.83 | 0.27 µM | 0.68 µM | – | – | –
COc1ccc2cc3[n+](cc2c1N1CCCC(C)C1)CCc1cc2c(cc1-3)OCO2 (stereo not drawn) [Compound AB35530] | 6.26 | 1.76 µM | 5.61 | 0.32 µM | 0.72 µM | – | – | –
COc1ccc2cc3[n+](cc2c1N1CCOC(C)C1)CCc1cc2c(cc1-3)OCO2 (stereo not drawn) [Compound AB35540] | 5.23 | 19 µM | 4.81 | 5.05 µM | 10.4 µM | – | – | –
COc1ccc2cc3[n+](cc2c1N1CCC(F)CC1)CCc1cc2c(cc1-3)OCO2 [Compound AB35551] | 5.71 | 5.96 µM | 5.24 | 1.57 µM | 3.48 µM | – | – | –
COc1ccc2cc3[n+](cc2c1N1CCCC1)CCc1cc2c(cc1-3)OCO2 [Compound AB35555] | 6.35 | 2.19 µM | 5.80 | 0.37 µM | 1.02 µM | – | – | –
COc1ccc2cc3[n+](cc2c1N1CCC(F)(F)CC1)CCc1cc2c(cc1-3)OCO2 [Compound AB35556] | 5.50 | 9.86 µM | 5.14 | 2.57 µM | 5.85 µM | – | – | –
COc1ccc2cc3[n+](cc2c1N1CCC2(CCO2)CC1)CCc1cc2c(cc1-3)OCO2 [Compound AB35575] | 5.23 | 14.8 µM | 4.57 | 4.07 µM | 8.96 µM | – | – | –
COc1ccc2cc3[n+](cc2c1N1CCCCCC1)CCc1cc2c(cc1-3)OCO2 [Compound AB36413] | 6.49 | 1.58 µM | 5.90 | 0.29 µM | 0.85 µM | – | – | –
COc1ccc2cc3[n+](cc2c1N1CCCCC1)CCc1cc2c(cc1-3)OCO2 [Compound AB36492] | 6.34 | 1.46 µM | 5.78 | 0.21 µM | 0.68 µM | – | – | –
OO [Compound H2O2, H2O2] | – | – | – | – | – | 79% | 82% | 95%
COc1ccc2cc3[n+](cc2c1N1CCC(C)CC1)CCc1cc2c(cc1-3)OCO2 [Compound SJ0001] | 6.28 | 1.12 µM | 5.87 | 0.14 µM | 0.58 µM | – | – | –
COc1ccc2cc3[n+](cc2c1N1CCC(C(F)(F)F)CC1)CCc1cc2c(cc1-3)OCO2 [Compound SJ0002] | 5.81 | 2.03 µM | 5.29 | 0.32 µM | 0.88 µM | – | – | –
COc1ccc2cc3[n+](cc2c1N1CCC(Cl)CC1)CCc1cc2c(cc1-3)OCO2 [Compound SJ0004] | 5.62 | 2.96 µM | 5.13 | 0.74 µM | 1.94 µM | – | – | –
COc1ccc2cc3[n+](cc2c1N1CCC(C)CC1)CCc1cc2c(cc1-3)OCCO2 [Compound SJ0009] | 6.33 | 1.33 µM | 5.69 | 0.18 µM | 0.55 µM | – | – | –
COc1ccc2cc3[n+](cc2c1N1CCC(C(F)(F)F)CC1)CCc1cc2c(cc1-3)OCCO2 [Compound SJ0010] | 5.68 | 2.54 µM | 5.20 | 0.45 µM | 0.89 µM | – | – | –
COc1ccc2cc3[n+](cc2c1N1CCC(Cl)CC1)CCc1cc2c(cc1-3)OCCO2 [Compound SJ0012] | 5.68 | 3.88 µM | 5.16 | 0.97 µM | 2.35 µM | – | – | –
